≈ marks a conversion by molar mass, not a printed value. Read-outs that look alike come from different tables or passages of the source.
Tests used:
Format in all cases: cell-based
Helicobacter pylori (Hp) = assay: screening of antibacterial components of traditional Chinese drug, MIC against Hp; settings: monomer alone
Excerpt: The combination of different monomer compositions can resist bacteria, increase the action target of the composition, be conducive to improve the antibacterial effect and reduce the drug resistance of the composition. Therefore, in the present disclosure, according to the quality ratio of Zuojin pills, berberine, evolitrine, and tanshinone I are combined according to a certain quality ratio to inhibit Hp. This combination can synergistically enhance the inhibition of Hp, and is not easy to produce drug resistance, which has an extremely excellent effect on the treatment of Hp infection related diseases.

Helicobacter pylori = assay: Chessboard method, synergistic inhibitory effect of two monomers (FIC); settings: monomer used alone, 72 hours
Procedure: The compositions 1, 2, 3, 4 and 5 are prepared according to Examples 1, 2, 3, 4 and 5, respectively. • 1.2. Strain • (1) Helicobacter pylori strains: standard strains 26695, NSH57, MSD132 and G27 are presented by Dr. Hongkai Bi of Nanjing Medical University; clinical metronidazole drug-resistant strains, clarithromycin drug-resistant strains, levofloxacin drug-resistant strains, levofloxacin and metronidazole drug-resistant strains, clarithromycin and metronidazole drug-resistant strains, levofloxacin and clarithromycin and metronidazole multi drug-resistant strains (HPBS001, HPBS002, HPBS003, and the like) are provided by the Research Center for the Prevention and Treatment of Drug Resistant Microbial Infections of Youjiang Medical University for Nationalities. • (2) Non Helicobacter pylori strains: Staphylococcus aureus, Escherichia coli, Pseudomonas aeruginosa, Acinetobacter baumannii, Klebsiella pneumoniae, Candida albicans, Enterobacter cloacae, Campylobacter jejuni, Bacillus subtilis, Proteus mirabilis, Lactobacillus campylobacter, Stenotrophomonas maltophilia, Morganella morganii, Candida tropicalis, Staphylococcus haemolyticus, Acetobacter, Saccharomyces cerevisiae, Enterobacter hormaechei well is provided by the Research Center for the Prevention and Treatment of Drug Resistant Microbial Infections of Youjiang Medical University for Nationalities. • 1.3 Main culture media and reagents: Columbia culture medium, Brain Heart Infusion Broth, nutrient agar culture medium, nutrient broth culture medium, MH culture medium, Sabouraud culture medium, standard calf serum. • 1.4 Main instruments: three gas incubator, centrifuge, microplate reader, electronic balance, and the like. • 1.5 Consumable materials: EP tube, tip, centrifuge tube, and the like. • 2. […]

[1] = tested on: Helicobacter pylori G27 strain; assay: Drug resistance test, induction with 1/4 MIC for 24 days
Excerpt: Note: In 6:1:3 group, “>” refers to greater than 46.1+7. 7+23.1. • 2.4 Drug Resistance Test of Prepared 6:1:3 Composition • (1) The drug resistance of […] is detected with Helicobacter pylori G27 strain.

[2] = Helicobacter pylori, read-out: MIC

SMILES	MIC (Helicobacter pylori (Hp); [2])	MIC (Helicobacter pylori; [2])	further results
COc1ccc2cc3[n+](cc2c1OC)CCc1cc2c(cc1-3)OCO2 [Berberine, berberine]	16 to 32 µg/mL	16 µg/mL	
COc1ccc2c(OC)c3ccoc3nc2c1 [Evolitrine, evolitrine]	16 to 32 µg/mL	32 µg/mL	
Cc1coc2c1C(=O)C(=O)c1c-2ccc2c(C)cccc12 [Tanshinone I, tanshinone I]			MIC (Helicobacter pylori (Hp)): 0.5 to 1 µg/mL; MIC (Helicobacter pylori): Tanshinone I (1 μg/mL)
Cc1ncc([N+](=O)[O-])n1CCO [metronidazole]			MIC ([1]; Helicobacter pylori, G27STRAIN, before induction): 2 µg/mL (≈ 11.7 µM); MIC increase after induction ([1]; after 24 days of induction with 1/4 MIC, FIG. 3): 64 times
